# System: E. coli (AAC(3)III)
# Assay: MIC 50, broth micro-dilution, E. coli expressing AAC(3)III
# Format: cell-based, Escherichia coli
# Details: ATCC25922 harboring plasmid encoding AAC(3)III
row,SMILES,MIC50
1,"NCC[C@H](O)C(=O)N[C@@H]1CC(N)[C@@H](O[C@H]2OC(CN)[C@@H](O)CC2N)[C@H](O)C1OC1O[C@H](CO)[C@@H](O)C(N)[C@H]1O (stereo partly shown) [ABX5004, Tobra-AHB]",1 µM
2,"NCCC(O)C(=O)NC1CC(N)C(OC2OC(CN)C(O)C(O)C2N)C(F)C1OC1OC(CO)C(O)C(N)C1O (stereo not shown) [ABX4007, KanaB-AHB-F]",1 µM

# Same assay, conditions: Escherichia coli, ATCC25922, ATCC25922 harboring plasmid encoding AAC(3)III
row,SMILES,MIC50
1,"N=C(NCc1cnc[nH]1)NC1[C@@H](O)C(OC2[C@@H](F)[C@H](O[C@H]3OC(CN)[C@@H](O)CC3N)C(N)C[C@H]2NC(=O)[C@@H](O)CCN)O[C@H](CO)[C@H]1O (stereo partly shown) [ABX5050, Tobra-AHB-F-Gua imidazol-5-yl methyl]",1 µM
2,"N=C(NCc1ccncc1)NC1[C@@H](O)C(OC2[C@@H](F)[C@H](O[C@H]3OC(CN)[C@@H](O)CC3N)C(N)C[C@H]2NC(=O)[C@@H](O)CCN)O[C@H](CO)[C@H]1O (stereo partly shown) [ABX5048, Tobra-AHB-F-Gua pyridin-4-yl methyl]",0.5 to 1 µM
3,"N=C(N)NC1[C@@H](O)C(OC2[C@@H](F)[C@H](O[C@H]3OC(CN)[C@@H](O)[C@H](O)C3O)C(N)C[C@H]2NC(=O)[C@@H](O)CCN)O[C@H](CO)[C@H]1O (stereo partly drawn) [ABX3003, 3′epi-KanaA-AHB-F-Gua]",1 µM
4,"NCC[C@H](O)C(=O)N[C@@H]1C[C@H](N)[C@@H](O[C@H]2O[C@H](CN)[C@@H](O)[C@H](O)[C@H]2O)[C@H](O)[C@H]1O[C@H]1O[C@H](CO)[C@@H](O)[C@H](N)[C@H]1O [Amikacin, amikacin, reference compound]",2 µM
5,"N=C(N)NC1[C@@H](O)C(OC2[C@@H](F)[C@H](O[C@H]3OC(CNCCO)[C@@H](O)CC3N)C(N)C[C@H]2NC(=O)[C@@H](O)CCN)O[C@H](CO)[C@H]1O (stereo partly shown) [ABX5045, 6N-2-hydroxy-ethyl-Tobra-AHB-F-Gua]",0.5 to 1 µM
